“And” between values parts separate entries of the source, which are not always exact repeats. Identical values can stand only once. One block for each compound: values may come before it.
Assays:
[1] = target: T1, Peroxisome proliferator-activated receptor gamma (Homo sapiens, UniProt P37231)
T1 sequence (P37231 whole entry): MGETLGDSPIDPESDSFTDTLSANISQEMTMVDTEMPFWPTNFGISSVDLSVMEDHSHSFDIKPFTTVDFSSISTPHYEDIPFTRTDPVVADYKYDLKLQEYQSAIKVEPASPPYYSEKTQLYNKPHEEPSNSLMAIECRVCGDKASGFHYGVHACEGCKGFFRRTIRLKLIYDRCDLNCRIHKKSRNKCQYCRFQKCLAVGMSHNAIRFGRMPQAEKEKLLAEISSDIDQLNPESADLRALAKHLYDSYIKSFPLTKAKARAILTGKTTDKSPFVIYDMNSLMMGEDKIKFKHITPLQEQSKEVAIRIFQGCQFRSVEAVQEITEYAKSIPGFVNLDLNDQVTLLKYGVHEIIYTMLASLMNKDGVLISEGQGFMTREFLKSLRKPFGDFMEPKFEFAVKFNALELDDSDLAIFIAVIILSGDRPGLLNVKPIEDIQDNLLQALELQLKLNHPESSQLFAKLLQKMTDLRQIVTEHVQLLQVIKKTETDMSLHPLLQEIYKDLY
Description: In vitro transactivation using receptor transactivation assay against hPPAR gamma

[2] = target: T2, Peroxisome proliferator-activated receptor alpha (Homo sapiens, UniProt Q07869); assay: In vitro transactivation using receptor transactivation assay against hPPAR alpha; format: functional
T2 sequence (Q07869 whole entry): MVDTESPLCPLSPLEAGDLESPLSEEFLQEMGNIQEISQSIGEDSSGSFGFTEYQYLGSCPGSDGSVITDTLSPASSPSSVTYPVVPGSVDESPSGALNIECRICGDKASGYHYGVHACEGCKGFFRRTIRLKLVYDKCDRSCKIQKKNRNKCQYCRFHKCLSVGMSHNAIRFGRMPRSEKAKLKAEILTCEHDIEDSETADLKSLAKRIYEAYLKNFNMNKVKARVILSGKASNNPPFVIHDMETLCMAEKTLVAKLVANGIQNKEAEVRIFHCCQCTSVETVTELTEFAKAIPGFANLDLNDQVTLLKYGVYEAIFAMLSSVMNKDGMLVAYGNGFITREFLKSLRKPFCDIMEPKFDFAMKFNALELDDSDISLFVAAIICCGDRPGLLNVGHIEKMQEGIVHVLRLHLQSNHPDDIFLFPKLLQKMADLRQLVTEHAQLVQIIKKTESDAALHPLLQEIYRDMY

[3] = Maximum plasma concentration after oral administration at a dose 2.2 mg/kg; format: ADME, organism-based; parameters: dose 2.2 mg/kg, route oral
Rattus norvegicus [4] = species: Rattus norvegicus; assay: Effective dose which produces the desired total cholesterol levels imale Sprgue-Dawley rats.; format: functional
Mus musculus [5] = species: Mus musculus; assay: Maximum achieved insulin reduction relative to vehicle treated control group; format: functional
Mus musculus [6] = species: Mus musculus; assay: Maximum achieved triglycerides reduction relative to vehicle treated control group; format: functional
[7] = Clearance after oral administration; format: ADME, organism-based; settings: in vivo
Mus musculus [8] = species: Mus musculus; assay: Effective dose which produces the desired nonfasting insuline levels after 7 days in 50% of the treated male db/db mice.; format: functional; settings: 168 h
Rattus norvegicus [9] = species: Rattus norvegicus; assay: Maximum achieved Nonfasted triglycerides reduction relative to vehicle treated control group; format: functional
Mus musculus [10] = species: Mus musculus; assay: Effective dose which produces the desired nonfasting triglyceride levels after 7 days in 50% of the treated male db/db mice.; format: functional; settings: 168 h
Rattus norvegicus [11] = species: Rattus norvegicus; assay: Maximum achieved Total cholesterol reduction relative to vehicle treated control group; format: functional
[12] = Area under blood glucose time curve after OGTT on the 9th day of treatment; format: ADME, tissue-based
Rattus norvegicus [13] = species: Rattus norvegicus; assay: Effective dose which produces the desired nonfasting triglyceride levels in high cholesterol fed male Sprgue-Dawley rats.; format: functional
Mus musculus [14] = species: Mus musculus; assay: Maximum achieved blood glucose reduction relative to vehicle treated control group; format: functional
[15] = Oral bioavailability; format: ADME, organism-based; settings: eutheria, in vivo
[16] = Area under plasma concentration time curve after oral administration at a dose 2.2 mg/kg; format: ADME, organism-based; parameters: dose 2.2 mg/kg, route oral; settings: plasma, read-out: AUC (converted)
[17] = Oral half life was reported; format: ADME, organism-based; settings: in vivo
Mus musculus [18] = species: Mus musculus; assay: Effective dose which produces the desired nonfasting blood glucose levels after 7 days in 50% of the treated mice.; format: functional; settings: 168 h

Description for in vivo: Volume of distribution during steady state

SMILES: CCO[C@@H](Cc1ccc(OCCn2c3ccccc3c3ccccc32)cc1)C(=O)O
EC50 [2]: 0.36 µM | Cmax [3]: 4430 ng/mL | ED50 (Rattus norvegicus [4]): 0.34 mg/kg | Max reduction (Mus musculus [5]): 85% | Max reduction (Mus musculus [6]): 52% | CL/F [7]: 0.75 mL/min/kg | ED50 (Mus musculus [8]): 0.34 mg/kg | Reduction (Rattus norvegicus [9]): 56% | Vd (in vivo): 0.73 L/kg | ED50 (Mus musculus [10]): 0.52 mg/kg | Reduction (Rattus norvegicus [11]): 50% | AUC ED50 [12]: 0.4 mg/kg | ED50 (Rattus norvegicus [13]): 0.06 mg/kg | Max reduction (Mus musculus [14]): 58% and 55% | bioavailability [15]: > 100% | EC50 [1]: 0.17 µM | AUC [16]: 144 µg·h/mL | half-life [17]: 22.2 h | ED50 (Mus musculus [18]): 0.27 mg/kg

SMILES: CCO[C@@H](Cc1ccc(OCCN2c3ccccc3Oc3ccccc32)cc1)C(=O)O [RAGAGLITAZAR]
EC50 [2]: 3.21 µM | EC50 [1]: 0.57 µM

SMILES: CC(C)(Oc1ccc(CCNC(=O)c2ccc(Cl)cc2)cc1)C(=O)O [BEZAFIBRATE]
ED50 (Rattus norvegicus [4]): 16.7 mg/kg | Reduction (Rattus norvegicus [9]): 63% | Reduction (Rattus norvegicus [11]): 74% | ED50 (Rattus norvegicus [13]): 16.5 mg/kg | EC50 [1]: 73.5 µM

SMILES: CCO[C@@H](Cc1ccc(OCCn2c3ccc(Br)cc3c3cc(Br)ccc32)cc1)C(=O)O
EC50 [2]: 0.22 µM | EC50 [1]: 0.044 µM

SMILES: CCOC(Cc1ccc(OCCCN2c3ccccc3CCc3ccccc32)cc1)C(=O)O (centres undefined)
EC50 [1]: 0.76 µM

SMILES: CCOC(Cc1ccc(OCCN2c3ccccc3CCc3ccccc32)cc1)C(=O)O (centres undefined)
EC50 [1]: 0.75 µM

Results, then the compound that gave them:

EC50 [1]: 12.6 µM
SMILES: CCOC(Cc1ccc(OCC=C2c3ccccc3CCc3ccccc32)cc1)C(=O)O (centres undefined)

EC50 [2]: 9 µM | EC50 [1]: 3.7 µM
SMILES: CCOC(Cc1ccc(OCCC2Sc3ccccc3Oc3ccccc32)cc1)C(=O)O (centres undefined)

EC50 [2]: 12.4 µM | EC50 [1]: 12.4 µM
SMILES: CCOC(Cc1ccc(OCC/C=C2/c3ccccc3COc3ccccc32)cc1)C(=O)O (centres undefined)

EC50 [1]: 3.4 µM
SMILES: CCOC(Cc1ccc(OCC=C2c3ccccc3OCOc3ccccc32)cc1)C(=O)O (centres undefined)

EC50 [2]: 7.5 µM | EC50 [1]: 9.8 µM
SMILES: CCOC(Cc1ccc(OCCNC2=Nc3ccccc3Sc3ccccc32)cc1)C(=O)O (centres undefined)

EC50 [1]: 1.7 µM
SMILES: CCOC(Cc1ccc(OCCN(C)C2c3ccccc3CCc3ccccc32)cc1)C(=O)O (centres undefined)

— ChEMBL document CHEMBL1135600, “Novel tricyclic-alpha-alkyloxyphenylpropionic acids: dual PPARalpha/gamma agonists with hypolipidemic and antidiabetic activity” (J Med Chem, 2002)
